Test results as given in US20110224214A1, “PROCESS FOR PREPARING POLYMORPH” (SANOFI-AVENTIS U.S. LLC, priority 2008, published 2011).
“Also recorded” adds a separate entry of the source.

What was measured:
[1] = target: peripheral-type benzodiazepine receptors (Homo sapiens, UniProt P30536); conditions: cited from earlier work
[2] = polymorphic stability during wet granulation (XRPD); type: physicochemical; conditions: wet granulation of Example 6, dried at 50° C. for 2 hours
Experimental: The sample prepared according the Example 5, above was used to prepare a wet granulation formulation with the following composition: […]
The drug substance product of Example 5, lactose, microcrystalline cellulose (Avicel®, available from FMC BioPolymer, Philadelphia, Pa.), and sodium starch glycolate were pre-blended by screening five times with a 20 mesh screen. For the granulating fluid, the hydroxypropylmethylcellulose was dissolved in hot water at 5% concentration then cooled to 20° C. The sodium lauryl sulfate was dissolved in the cooled granulating fluid at 1.5% concentration. Approximately 50% water (relative to the weight of total solids) was used to prepare the granulation; the granulating fluid was added dropwise to the premixed powders while mixing in a mortar and pestle. The granulation was dried at 50° C. for 2 hours, and then ground in a mortar and pestle prior to analysis.
XRPD patterns were obtained with a Bruker D8® ADVANCE X-ray powder diffractometer using copper K-alpha radiation. The instrument was equipped with parallel beam optics, and the tube voltage and amperage were set to 40 kV and 40 mA, respectively. Samples were scanned at a rate of 1.0 degree/minute from 2 to 40 degrees in angle 2-theta.

[3] = stability profile of the crystalline form; type: physicochemical
[4] = impurity profile by HPLC after annealing; type: physicochemical; conditions: annealed at 80° C. for 1 hour
Experimental: 4.0 g of drug substance were dissolved in 200 mL of a 50/50 (by volume) mixture of DCM and EtOH at 20° C. The mixture was stirred for about 1 hour. The resulting clear solution was spray dried in a Buchi B290 Mini Spray Dryer by pumping the solution through a 0.7 mm nozzle (commercially available from Buchi) at approximately 2 to 3 mL/minute. The system was operated at an inlet gas temperature of 100° C. and an outlet gas temperature of approximately 70° C. The solvent was removed to isolate the solid (approximately 3.0 g).
The HPLC method parameters utilized in Example 4 were as follows: System HP 1050, column-Waters C8 Symmetry Shield 5 um (4.6×150 mm), Mobile phase (“A”): 0.05% formic acid in water, Mobile phase (“B”): 0.05% formic acid in acetonitrile, injection volume: 10 μl, wavelength: 258 nm, and flow rate: 0.8 mL/minute. A gradient method was used according to the time table below.

Sequence of peripheral-type benzodiazepine receptors (P30536 whole entry): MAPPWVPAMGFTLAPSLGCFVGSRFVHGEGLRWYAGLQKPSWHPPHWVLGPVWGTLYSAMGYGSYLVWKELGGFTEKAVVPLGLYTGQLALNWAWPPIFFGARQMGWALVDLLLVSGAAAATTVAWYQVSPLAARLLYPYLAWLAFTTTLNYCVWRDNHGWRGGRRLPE

stability profile to support use in a pharmaceutical product [3] | changes in the impurity profile after the annealing process (HPLC) [4] | SMILES | affinity for the peripheral-type benzodiazepine receptors [1] | conversion of Form II to crystalline Form I during the wet granulation process (XRPD) [2]
– | – | CN(C)C(=O)Cc1nn(-c2ccccc2)c(=O)c2c1c1ccc(Cl)cc1n2C [7-Chloro-N,N,5-trimethyl-4-oxo-3-phenyl-3,5-dihydro-4H-pyridazino[4,5-b]indole-1-acetamide] | high affinity | –
sufficient stability profile | no changes in the impurity profile | CN(C)C(=O)Cc1nn(-c2ccccc2)c(=O)c2c1c1ccc(Cl)cc1n2C [Form II, 7-chloro-N,N,5-trimethyl-4-oxo-3-phenyl-3,5-dihydro-4H-pyridazino[4,5-b]indole-1-acetamide] | – | no evidence of the Form II solid converting to crystalline Form I; also recorded: stable with respect to wet granulation
